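Dose response: 5 concentrations. Exposure: 48 h. Format: 96-well plates. Endpoint: linear interpolation; highest concentration if not reached. At the GI50, growth is halved.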 The source made the active and inactive calls. Rule as the data show it: active = GI50 up to about 1.1 µM and inactive = higher.
Experiments:
Assay in all cases: NCI tumour cell line growth inhibition, 48 h
[1] = system: Hs-578T
[2] = system: T47D
[3] = system: NCI-H460
[4] = system: HOP-92
[5] = system: 786-0
[6] = system: COLO 205
[7] = system: A498
[8] = system: LOX IMVI
[9] = system: HT-29
[10] = system: OVCAR-5
[11] = system: MDA-N
[12] = system: M14
[13] = system: SN12C
[14] = system: MDA-MB-231
[15] = system: RPMI-8226
[16] = system: SNB-19
[17] = system: CAKI-1
[18] = system: SK-MEL-28
[19] = system: SF-539
[20] = system: BT-549
[21] = system: EKVX
[22] = system: PC-3
[23] = system: CCRF-CEM
[24] = system: SW-620
[25] = system: UACC-62
[26] = system: TK-10
[27] = system: Malme-3M
[28] = system: SK-MEL-2
[29] = system: MOLT-4
[30] = system: RXF 393
[31] = system: MCF7
[32] = system: KM12
[33] = system: NCI/ADR-RES
[34] = system: MDA-MB-435
[35] = system: DU-145
[36] = system: ACHN
[37] = system: SNB-75
[38] = system: A549
[39] = system: NCI-H522
[40] = system: SK-MEL-5
[41] = system: HL-60
[42] = system: HCT-116
[43] = system: OVCAR-8
[44] = system: NCI-H23
[45] = system: SK-OV-3
[46] = system: HOP-62
[47] = system: UO-31
[48] = system: SF-295
[49] = system: SF-268
[50] = system: OVCAR-3
[51] = system: OVCAR-4
[52] = system: HCT-15
[53] = system: U-251
[54] = system: IGROV-1
[55] = system: NCI-H226
[56] = system: K562
[57] = system: HCC 2998
[58] = system: UACC-257

Measured: GI50

COC(=O)Nc1nc2cc(NS(=O)(=O)c3ccc(Cl)cc3)ccc2[nH]1
6.44 µM: [52]
inactive: [1] 1.99 µM | [2] 19.1 µM | [3] 5.98 µM | [4] 1.84 µM | [5] 17.7 µM | [6] 9.1 µM | [7] 3.05 µM | [8] 4.44 µM | [9] 4.26 µM | [10] 17.9 µM | [11] 2.18 µM | [12] 3.77 µM | [13] 16.3 µM | [14] 8.34 µM | [15] 6.75 µM | [16] 4.33 µM | [17] 3.78 µM | [18] 6.79 µM | [19] 7.21 µM | [20] 13.4 µM | [21] 5.78 µM | [22] 8.55 µM | [23] 4.35 µM | [24] 5.11 µM | [25] 6.71 µM | [26] 2.7 µM | [27] 13.1 µM | [28] 6.37 µM | [29] 4.53 µM | [30] 7.23 µM | [31] 4.08 µM | [32] 3.61 µM | [33] 8.59 µM | [34] 2.17 µM | [35] 20.4 µM | [36] 14.2 µM | [37] 2.35 µM | [38] 15.9 µM | [39] 3.4 µM | [40] 3.99 µM | [41] 4.15 µM | [42] 2.45 µM | [43] 13 µM | [44] 9.93 µM | [45] 12.2 µM | [46] 10.7 µM | [47] 11.7 µM | [48] 4.45 µM | [49] 10.4 µM | [50] 3.29 µM | [51] 13 µM | [53] 12.2 µM | [54] 2.59 µM | [55] 10.6 µM | [56] 6.3 µM

Nc1nc(Cl)c(/N=N/c2ccc(Cl)cc2)c(NCC2(CO)CCC(CCc3ccccc3)C2)n1 (centres undefined)
6.87 µM: [52]
inactive: [1] 8.51 µM | [57] 5.97 µM | [2] 3.94 µM | [3] 12.7 µM | [4] 11.1 µM | [5] 6.32 µM | [6] 4.86 µM | [7] 13.2 µM | [8] 1.79 µM | [9] 12.1 µM | [10] 15.4 µM | [11] 11.4 µM | [12] 8.81 µM | [13] 9.46 µM | [14] 12.2 µM | [15] 12.1 µM | [16] 19.5 µM | [58] 10.6 µM | [17] 2.8 µM | [18] 14.2 µM | [19] 14.2 µM | [20] 6.81 µM | [21] 8.79 µM | [22] 12.2 µM | [23] 1.21 µM | [24] 3.92 µM | [25] 10.4 µM | [26] 13.8 µM | [27] 14.8 µM | [28] 13.6 µM | [29] 1.29 µM | [30] 7.8 µM | [31] 5.62 µM | [32] 13.2 µM | [33] 4.56 µM | [34] 9.98 µM | [35] 13.2 µM | [36] 5.97 µM | [37] 13.6 µM | [38] 14.1 µM | [39] 1.31 µM | [40] 1.37 µM | [41] 4.14 µM | [42] 6.11 µM | [43] 5.4 µM | [44] 1.26 µM | [45] 12 µM | [46] 13.7 µM | [47] 2.1 µM | [48] 11 µM | [49] 6.22 µM | [50] 11 µM | [51] 1.5 µM | [53] 14.1 µM | [54] 6.22 µM | [55] 1.91 µM
active: [56] 0.841 µM

— ChEMBL document CHEMBL1201862, “PubChem BioAssay data set” (2004)
